Non-standard residues stand in square brackets, D forms with d. Residues, ends and D or L forms follow the SMILES beside them. Cit = NC(=O)NCCC[C@H](N)C(=O)O
Each compound was assayed against T1, DR0401 protein (Homo sapiens, UniProt P01903+P01911, A100K/A169T/F76Y/I96L/K127E/L162R/M171V/N62H/P40V/Q125Y/R42H/S133A/S149N/S66Y/V115G/V209L/W38E) (assay: DR0401 peptide binding competition assay). Details: Supplementary Table 2; competition with biotin-HA306-318 0.02 μM; read-out: IC50 (Binding of Predicted Glucokinase Peptides to DR04:01).
T1 construct: made in house; host or cells: insect cell cultures
Compound `CSCC[C@H](NC(=O)[C@H](CCCCN)NC(=O)[C@@H](NC(=O)[C@H](CO)NC(=O)[C@H](C)NC(=O)[C@H](CCC(=O)O)NC(=O)[C@H](CCC(=O)O)NC(=O)[C@H](Cc1c[nH]cn1)NC(=O)[C@@H](NC(=O)[C@H](CCC(=O)O)NC(=O)[C@H](CC(C)C)NC(=O)[C@H](CCCNC(N)=O)NC(=O)[C@H](CC(C)C)NC(=O)CN)[C@@H](C)O)C(C)C)C(=O)N[C@@H](CC(C)C)C(=O)O` [GK 44-58] (H-GL[Cit]LETHEEASVKML-OH; N-terminus and C-terminus assumed) has an IC50 of over 50 µM. `CSCC[C@H](NC(=O)[C@H](CCCCN)NC(=O)[C@@H](NC(=O)[C@@H](N)CO)C(C)C)C(=O)N[C@@H](CC(C)C)C(=O)N1CCC[C@H]1C(=O)N[C@H](C(=O)N[C@@H](Cc1ccc(O)cc1)C(=O)N[C@H](C(=O)N[C@@H](CCCNC(N)=O)C(=O)N[C@@H](CO)C(=O)N[C@H](C(=O)N1CCC[C@H]1C(=O)N[C@@H](CCC(=O)O)C(=O)NCC(=O)O)[C@@H](C)O)C(C)C)[C@@H](C)O` [GK 54-68] (H-SVKMLPTYV[Cit]STPEG-OH; N-terminus and C-terminus assumed) showed an IC50 of over 50 µM. Work on `CC(C)C[C@H](N)C(=O)N1CCC[C@H]1C(=O)N[C@H](C(=O)N[C@@H](Cc1ccc(O)cc1)C(=O)N[C@H](C(=O)N[C@@H](CCCNC(N)=O)C(=O)N[C@@H](CO)C(=O)N[C@H](C(=O)N1CCC[C@H]1C(=O)N[C@@H](CCC(=O)O)C(=O)NCC(=O)N[C@@H](CO)C(=O)N[C@@H](CCC(=O)O)C(=O)N[C@H](C(=O)NCC(=O)O)C(C)C)[C@@H](C)O)C(C)C)[C@@H](C)O` [GK 58-72] (H-LPTYV[Cit]STPEGSEVG-OH) yielded an IC50 of 30.9 µM. `CSCC[C@H](NC(=O)[C@@H](NC(=O)[C@H](CCCNC(=N)N)NC(=O)[C@H](Cc1ccccc1)NC(=O)[C@H](CC(N)=O)NC(=O)[C@@H](NC(=O)CN)[C@@H](C)O)C(C)C)C(=O)N[C@@H](CC(C)C)C(=O)N[C@H](C(=O)N[C@@H](CCCCN)C(=O)N[C@H](C(=O)NCC(=O)N[C@@H](CCC(=O)O)C(=O)NCC(=O)N[C@@H](CCC(=O)O)C(=O)O)C(C)C)C(C)C` [GK 81-95] (H-GTNFRVMLVKVGEGE-OH) gave an IC50 of 15.3 µM. `CC[C@H](C)[C@H](NC(=O)[C@H](CS)NC(=O)[C@H](CCC(=O)O)NC(=O)[C@H](CO)NC(=O)[C@@H](NC(=O)[C@H](Cc1ccc(O)cc1)NC(=O)[C@H](CC(=O)O)NC(=O)[C@H](Cc1ccccc1)NC(=O)[C@H](CC(C)C)NC(=O)[C@H](CCSC)NC(=O)[C@@H](N)CCC(=O)O)[C@@H](C)CC)C(=O)N[C@@H](CO)C(=O)N[C@@H](CC(=O)O)C(=O)N[C@@H](Cc1ccccc1)C(=O)N[C@@H](CC(C)C)C(=O)O` [GK 120-134] (H-EMLFDYISECISDFL-OH) was tested, and the IC50 was 40.1 µM. `CSCC[C@H](NC(=O)[C@H](Cc1ccc(O)cc1)NC(=O)[C@H](CS)NC(=O)[C@H](C)NC(=O)[C@@H](N)CC(N)=O)C(=O)N[C@@H](CCC(=O)O)C(=O)N[C@@H](CCC(=O)O)C(=O)N[C@@H](CCSC)C(=O)N[C@@H](CCC(N)=O)C(=O)N[C@@H](CC(N)=O)C(=O)N[C@H](C(=O)N[C@@H](CCC(=O)O)C(=O)N[C@@H](CC(C)C)C(=O)N[C@H](C(=O)N[C@@H](CCC(=O)O)C(=O)O)C(C)C)C(C)C` [GK 231-245] (H-NACYMEEMQNVELVE-OH) gave an IC50 of 0.03 µM. Work on `CSCC[C@H](NC(=O)[C@H](Cc1ccc(O)cc1)NC(=O)[C@H](CCCCN)NC(=O)CNC(=O)CN)C(=O)NCC(=O)N[C@@H](CCC(=O)O)C(=O)N[C@@H](CC(C)C)C(=O)N[C@H](C(=O)N[C@@H](CCCNC(N)=O)C(=O)N[C@@H](CC(C)C)C(=O)N[C@H](C(=O)N[C@@H](CC(C)C)C(=O)N[C@@H](CC(C)C)C(=O)N[C@@H](CCCNC(=N)N)C(=O)O)C(C)C)C(C)C` [GK 294-308] (H-GGKYMGELV[Cit]LVLLR-OH) yielded an IC50 of 4.3 µM. `CC(C)C[C@H](NC(=O)[C@H](CCC(N)=O)NC(=O)[C@H](CCC(=O)O)NC(=O)[C@H](CO)NC(=O)[C@H](C)NC(=O)[C@H](CCC(=O)O)NC(=O)CNC(=O)[C@H](Cc1c[nH]cn1)NC(=O)[C@H](Cc1ccccc1)NC(=O)[C@H](CC(C)C)NC(=O)[C@H](CC(C)C)NC(=O)[C@H](CC(N)=O)NC(=O)[C@H](CCC(=O)O)NC(=O)[C@@H](N)CC(=O)O)C(=O)O` [GK 311-324] (H-DENLLFHGEASEQL-OH; N-terminus and C-terminus assumed) was tested, and the IC50 was over 50 µM.

Same assay, conditions: Supplementary Table 3; competition with biotin-HA306-318 0.02 μM; representative values from two replicate experiments; read-out: IC50 (Effect of Citrulline or Arg Substitution)
`CC(C)C[C@H](NC(=O)[C@H](CC(C)C)NC(=O)[C@H](Cc1ccccc1)NC(=O)[C@H](CCC(=O)O)NC(=O)[C@H](CC(=O)O)NC(=O)[C@@H](N)CC(C)C)C(=O)N[C@@H](CCC(=O)O)C(=O)N[C@@H](Cc1ccc(O)cc1)C(=O)N[C@@H](CC(=O)O)C(=O)N[C@@H](CCCNC(N)=O)C(=O)N[C@@H](CC(C)C)C(=O)N[C@H](C(=O)N[C@@H](CC(=O)O)C(=O)N[C@@H](CCC(=O)O)C(=O)N[C@@H](CO)C(=O)O)C(C)C` [GK 266 Cit] (H-LDEFLLEYD[Cit]LVDES-OH) showed an IC50 of 9.5 µM. `CC(C)C[C@H](NC(=O)[C@H](CCCNC(N)=O)NC(=O)[C@H](CC(=O)O)NC(=O)[C@H](Cc1ccc(O)cc1)NC(=O)[C@H](CCC(=O)O)NC(=O)[C@H](CC(C)C)NC(=O)[C@@H](N)CC(C)C)C(=O)N[C@H](C(=O)N[C@@H](CC(=O)O)C(=O)N[C@@H](CCC(=O)O)C(=O)N[C@@H](CO)C(=O)N[C@@H](CO)C(=O)N[C@@H](C)C(=O)N[C@@H](CC(N)=O)C(=O)N1CCC[C@H]1C(=O)O)C(C)C` [GK 270 Cit] (H-LLEYD[Cit]LVDESSANP-OH) gave an IC50 of 8.6 µM.

Same assay, conditions: Table 1; competition with biotinylated HA306-318 reference peptide at 0.02 μM in DR0401-coated wells; europium-streptavidin time resolved fluorescence; concentration that displaces half of the reference peptide; read-out: IC50 (binding to DR0401)
Work on `CSCC[C@H](NC(=O)[C@H](C)NC(=O)[C@@H](NC(=O)[C@@H](NC(=O)[C@H](CC(=O)O)NC(=O)[C@H](CCSC)NC(=O)[C@H](CCC(=O)O)NC(=O)[C@H](Cc1ccccc1)NC(=O)[C@H](CC(=O)O)NC(=O)CNC(=O)[C@@H](N)CCCNC(=N)N)C(C)C)C(C)C)C(=O)N[C@H](C(=O)N[C@@H](CC(N)=O)C(=O)N[C@@H](CC(=O)O)C(=O)N[C@H](C(=O)O)[C@@H](C)O)C(C)C` [GK 192] (H-RGDFEMDVVAMVNDT-OH) yielded an IC50 of 0.35 µM. `CC[C@H](C)[C@H](NC(=O)[C@H](CCSC)NC(=O)[C@@H](NC(=O)[C@H](C)NC(=O)[C@@H](NC(=O)[C@@H](NC(=O)[C@H](CC(=O)O)NC(=O)[C@H](CC(N)=O)NC(=O)[C@@H](NC(=O)[C@H](CCSC)NC(=O)[C@H](C)NC(=O)[C@@H](NC(=O)[C@@H](N)C(C)C)C(C)C)C(C)C)[C@@H](C)O)C(C)C)[C@@H](C)O)C(=O)N[C@@H](CO)C(=O)N[C@@H](CS)C(=O)N[C@@H](Cc1ccc(O)cc1)C(=O)O` [GK 199] (H-VVAMVNDTVATMISCY-OH) showed an IC50 of 2.5 µM. Compound `CC(C)C[C@H](NC(=O)[C@H](CC(C)C)NC(=O)[C@H](Cc1ccccc1)NC(=O)[C@H](CCC(=O)O)NC(=O)[C@H](CC(=O)O)NC(=O)[C@@H](N)CC(C)C)C(=O)N[C@@H](CCC(=O)O)C(=O)N[C@@H](Cc1ccc(O)cc1)C(=O)N[C@@H](CC(=O)O)C(=O)N[C@@H](CCCNC(=N)N)C(=O)N[C@@H](CC(C)C)C(=O)N[C@H](C(=O)N[C@@H](CC(=O)O)C(=O)N[C@@H](CCC(=O)O)C(=O)N[C@@H](CO)C(=O)O)C(C)C` [GK 266] (H-LDEFLLEYDRLVDES-OH) has an IC50 of 5.6 µM. For `CC(C)C[C@H](NC(=O)[C@H](CCCNC(=N)N)NC(=O)[C@H](CC(=O)O)NC(=O)[C@H](Cc1ccc(O)cc1)NC(=O)[C@H](CCC(=O)O)NC(=O)[C@H](CC(C)C)NC(=O)[C@@H](N)CC(C)C)C(=O)N[C@H](C(=O)N[C@@H](CC(=O)O)C(=O)N[C@@H](CCC(=O)O)C(=O)N[C@@H](CO)C(=O)N[C@@H](CO)C(=O)N[C@@H](C)C(=O)N[C@@H](CC(N)=O)C(=O)N1CCC[C@H]1C(=O)O)C(C)C` [GK 270] (H-LLEYDRLVDESSANP-OH), the IC50 was 2 µM.
